The target in test [1] is T1, BTK (Homo sapiens (Human), UniProt Q06187). The experiment in a line: In Vitro BTK Kinase Assay: BTK-POLYGAT-LS ASSAY. It counts as biochemical. The following applies: fluorescein-labeled polyGAT peptide 100 nM, BTK enzyme 0.25 nM, 30 minutes, TRF. As for the experimental part:
In Vitro BTK Kinase Assay: BTK-POLYGAT-LS ASSAY
The purpose of the BTK in vitro assay is to determine compound potency against BTK through the measurement of IC50. […] For a typical assay, a […] aliquot of a ATP/peptide master mix (final concentration; ATP […], polyGAT 100 nM) in kinase buffer (10 mM Tris-HCl pH 7.5, 10 mM MgCl2, 200 μM Na3PO4, 5 mM DTT, 0.01% Triton X-100, and 0.2 mg/ml casein) is added to each well. […] The assay is incubated for 30 minutes before being stopped with 28 μL of a 50 mM EDTA solution. […] The plate is covered and incubated for 45 minutes at room temperature. Time resolved fluorescence (TRF) on Molecular Devices M5 (332 nm excitation; 488 nm emission; 518 nm fluorescein emission) is measured.

Test [2] deals with T1, BTK. The experiment in a line: In Vitro PD Assay in Human Whole Blood (pBTK assay). Format: cell-based. The following applies: human heparinized whole blood, 37° C. for 30 min, total BTK capture and phosphotyrosine detection (ECL). As for the experimental part: In Vitro PD Assay in Human Whole Blood
Human heparinized venous blood was purchased from Bioreclamation, Inc. or SeraCare Life Sciences and shipped overnight. Whole blood was aliquoted into 96-well plate and “spiked” with serial dilutions of test compound in DMSO or with DMSO without drug. The final concentration of DMSO in all wells was 0.1%. The plate was incubated at 37° C. for 30 min. Lysis buffer containing protease and phosphatase inhibitors was added to the drug-containing samples and one of the DMSO-only samples (+PPi, high control), while lysis buffer containing protease inhibitors was added to the other DMSO-only samples (−PPi, low control). All of the lysed whole blood samples were subjected to the total BTK capture and phosphotyrosine detection method described in US20160311802, incorporated herein by reference.

Among the data in patent US10899753B2, “Inhibiting agents for Bruton's tyrosine kinase” (BIOGEN MA INC., priority 2018, dated 2021) are IC50 values, retold here.

T1 sequence (Q06187 whole entry): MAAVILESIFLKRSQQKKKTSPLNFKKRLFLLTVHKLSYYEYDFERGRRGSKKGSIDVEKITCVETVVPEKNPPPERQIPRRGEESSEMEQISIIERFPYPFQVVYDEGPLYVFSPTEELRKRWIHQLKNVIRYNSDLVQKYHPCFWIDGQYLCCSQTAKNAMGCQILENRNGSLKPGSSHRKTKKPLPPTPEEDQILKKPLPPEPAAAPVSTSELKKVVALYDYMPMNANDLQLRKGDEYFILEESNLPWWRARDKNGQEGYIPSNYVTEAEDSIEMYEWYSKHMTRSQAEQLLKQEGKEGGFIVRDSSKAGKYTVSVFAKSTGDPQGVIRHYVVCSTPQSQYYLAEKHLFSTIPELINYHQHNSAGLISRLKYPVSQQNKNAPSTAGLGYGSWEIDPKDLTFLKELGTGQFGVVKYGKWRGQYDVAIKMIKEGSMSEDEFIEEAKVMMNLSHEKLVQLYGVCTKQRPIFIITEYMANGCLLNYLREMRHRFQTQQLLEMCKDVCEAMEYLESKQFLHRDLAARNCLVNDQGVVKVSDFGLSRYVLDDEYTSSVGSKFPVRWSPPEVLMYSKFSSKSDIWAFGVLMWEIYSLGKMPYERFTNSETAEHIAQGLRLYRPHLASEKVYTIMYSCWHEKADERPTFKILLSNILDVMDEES

With `Cc1cc(-c2ncnc(Nc3cnn(C)c3)n2)ccc1CNC(=O)c1cc(C(C)(C)C)no1` [Compound 108, 3-(tert-butyl)-N-(2-methyl-4-(4-((1-methyl-1H-pyrazol-4-yl)amino)-1,3,5-triazin-2-yl)benzyl)isoxazole-5-carboxamide], the 50% inhibitory concentration (IC50) – broadly, the point on the concentration scale where inhibition reaches its midpoint – in test [1] is less than 1 nM; in test [2], 100 to 500 nM.

Turning to `Cc1c(CNC(=O)c2cnn(C(C)(C)C)c2)ccc(-c2ncnc(Nc3cnn(C)c3)n2)c1F` [Compound 36, 1-(tert-butyl)-N-(3-fluoro-2-methyl-4-(4-((1-methyl-1H-pyrazol-4-yl)amino)-1,3,5-triazin-2-yl)benzyl)-1H-pyrazole-4-carboxamide], the IC50 in test [1] was less than 1 nM; in test [2], 100 to 500 nM.

Consider `Cn1cc(Nc2ncnc(-c3ccc4c(c3)CN(CC(F)(F)F)CC[C@H]4NC(=O)c3nc(C(C)(C)C)co3)n2)cn1` [Compound 93, 4-tert-butyl-N-[(5R)-8-[4-[(1-methylpyrazol-4-yl)amino]-1,3,5-triazin-2-yl]-2-(2,2,2-trifluoroethyl)-1,3,4,5-tetrahydro-2-benzazepin-5-yl]oxazole-2-carboxamide], for which the IC50 is less than 1 nM in test [1] and less than 100 nM in test [2].

On to `Cc1c([C@@H](C)NC(=O)c2noc(C(C)(C)C)n2)ccc(-c2ncnc(Nc3cnn(C)c3)n2)c1F` [Compound 73, (R)-5-(tert-butyl)-N-(1-(3-fluoro-2-methyl-4-(4-((1-methyl-1H-pyrazol-4-yl)amino)-1,3,5-triazin-2-yl)phenyl)ethyl)-1,2,4-oxadiazole-3-carboxamide], for which the IC50 was less than 1 nM in test [1] and less than 100 nM in test [2].

As for `Cc1cc(-c2ncnc(Nc3cnn(C)c3)n2)ccc1CNC(=O)c1noc(C(C)(C)C)n1` [Compound 11, 5-(tert-butyl)-N-(2-methyl-4-(4-((1-methyl-1H-pyrazol-4-yl)amino)-1,3,5-triazin-2-yl)benzyl)-1,2,4-oxadiazole-3-carboxamide], the half-inhibitory concentration (IC50) in test [1] was less than 1 nM; in test [2], 100 to 500 nM.

Regarding `Cc1cc(-c2ncnc(Nc3cnn(C)c3)n2)ccc1CNC(=O)c1nc(C(C)(C)C)no1` [Compound 12, 3-(tert-butyl)-N-(2-methyl-4-(4-((1-methyl-1H-pyrazol-4-yl)amino)-1,3,5-triazin-2-yl)benzyl)-1,2,4-oxadiazole-5-carboxamide], the IC50 in test [1] was less than 1 nM; in test [2], 100 to 500 nM.

`Cc1c([C@@H](C)NC(=O)c2nc(C(C)(C)C)no2)ccc(-c2ncnc(Nc3cnn(C)c3)n2)c1Cl` [Compound 80, (R)-3-(tert-butyl)-N-(1-(3-chloro-2-methyl-4-(4-((1-methyl-1H-pyrazol-4-yl)amino)-1,3,5-triazin-2-yl)phenyl)ethyl)-1,2,4-oxadiazole-5-carboxamide]: the figures for the 50% inhibitory concentration (IC50) in test [1] and in test [2] were less than 1 nM and 100 to 500 nM, respectively.

With `Cc1cc(-c2ncnc(Nc3cnn(C)c3)n2)c(F)cc1CNC(=O)c1coc(C(C)(C)C)n1` [Compound 65, 2-(tert-butyl)-N-(5-fluoro-2-methyl-4-(4-((1-methyl-1H-pyrazol-4-yl)amino)-1,3,5-triazin-2-yl)benzyl)oxazole-4-carboxamide], the 50% inhibitory concentration (IC50) in test [1] is less than 1 nM; in test [2], 500 to 10000 nM.

For the compound `Cn1cc(Nc2ncnc(-c3ccc4c(c3)CN(CC(F)(F)F)CC[C@H]4NC(=O)c3coc(C(C)(C)C)n3)n2)cn1` [Compound 92, 2-tert-butyl-N-[(5R)-8-[4-[(1-methylpyrazol-4-yl)amino]-1,3,5-triazin-2-yl]-2-(2,2,2-trifluoroethyl)-1,3,4,5-tetrahydro-2-benzazepin-5-yl]oxazole-4-carboxamide], the values for the IC50 in test [1] and in test [2] were less than 1 nM and less than 100 nM, respectively.

Regarding `Cc1c(CNC(=O)c2ncc(C(C)(C)C)o2)ccc(-c2ncnc(Nc3cnn(C)c3)n2)c1F` [Compound 31, 5-(tert-butyl)-N-(3-fluoro-2-methyl-4-(4-((1-methyl-1H-pyrazol-4-yl)amino)-1,3,5-triazin-2-yl)benzyl)oxazole-2-carboxamide], the half-maximal inhibitory concentration (IC50) is less than 1 nM in test [1] and 500 to 10000 nM in test [2].

In the case of `Cn1cc(Nc2ncnc(-c3ccc4c(c3)CN(CC(F)(F)F)CC[C@H]4NC(=O)c3noc(C(C)(C)C)n3)n2)cn1` [Compound 90, (R)-5-(tert-butyl)-N-(8-(4-((1-methyl-1H-pyrazol-4-yl)amino)-1,3,5-triazin-2-yl)-2-(2,2,2-trifluoroethyl)-2,3,4,5-tetrahydro-1H-benzo[c]azepin-5-yl)-1,2,4-oxadiazole-3-carboxamide], the half-inhibitory concentration (IC50) in test [1] was less than 1 nM; in test [2] it was less than 100 nM.

With `Cc1c(CNC(=O)c2nc(C3(CF)CC3)no2)ccc(-c2ncnc(Nc3ccn(C)n3)n2)c1F` [Compound 46, N-(3-fluoro-2-methyl-4-(4-((1-methyl-1H-pyrazol-3-yl)amino)-1,3,5-triazin-2-yl)benzyl)-3-(1-(fluoromethyl)cyclopropyl)-1,2,4-oxadiazole-5-carboxamide], the values for the IC50 in test [1] and in test [2] were 1 to 10 nM and 500 to 10000 nM, respectively.

With `Cc1c(CNC(=O)c2nn(C(C)(C)C)cc2F)ccc(-c2ncnc(Nc3cnn(C)c3)n2)c1F` [Compound 27, 1-(tert-butyl)-4-fluoro-N-(3-fluoro-2-methyl-4-(4-((1-methyl-1H-pyrazol-4-yl)amino)-1,3,5-triazin-2-yl)benzyl)-1H-pyrazole-3-carboxamide], the half-maximal inhibitory concentration (IC50) was less than 1 nM in test [1] and 100 to 500 nM in test [2].

As to `Cc1c([C@@H](C)NC(=O)c2cc(C(C)(C)C)no2)ccc(-c2ncnc(Nc3cnn(C)c3)n2)c1F` [Compound 75, (R)-3-(tert-butyl)-N-(1-(3-fluoro-2-methyl-4-(4-((1-methyl-1H-pyrazol-4-yl)amino)-1,3,5-triazin-2-yl)phenyl)ethyl)isoxazole-5-carboxamide], the concentration for half-maximal inhibition (IC50) in test [1] is less than 1 nM; in test [2] it was 100 to 500 nM.

Turning to `Cn1ccc(Nc2ncnc(-c3ccc(CNC(=O)c4nc(C(C)(C)C)no4)c(Cl)c3)n2)n1` [Compound 6, 3-(tert-butyl)-N-(2-chloro-4-(4-((1-methyl-1H-pyrazol-3-yl)amino)-1,3,5-triazin-2-yl)benzyl)-1,2,4-oxadiazole-5-carboxamide], the IC50 in test [1] is less than 1 nM; in test [2], 500 to 10000 nM.

As for `Cn1ccc(Nc2ncnc(-c3cc4c(cc3F)[C@H](NC(=O)c3nc(C(C)(C)C)no3)CCCC4)n2)n1` [Compound 85, (R)-3-(tert-butyl)-N-(3-fluoro-2-(4-((1-methyl-1H-pyrazol-3-yl)amino)-1,3,5-triazin-2-yl)-6,7,8,9-tetrahydro-5H-benzo[7]annulen-5-yl)-1,2,4-oxadiazole-5-carboxamide], the half-maximal inhibitory concentration (IC50) in test [1] was less than 1 nM; in test [2] it was less than 100 nM.

Turning to `Cc1c(CNC(=O)c2noc(C3(C)CC3)n2)ccc(-c2ncnc(Nc3cnn(C)c3)n2)c1F` [Compound 32, N-(3-fluoro-2-methyl-4-(4-((1-methyl-1H-pyrazol-4-yl)amino)-1,3,5-triazin-2-yl)benzyl)-5-(1-methylcyclopropyl)-1,2,4-oxadiazole-3-carboxamide], the results for the IC50 in test [1] and in test [2] were less than 1 nM and less than 100 nM, respectively.

For the compound `Cc1cc(-c2ncnc(Nc3cnn(C)c3)n2)c(F)cc1CNC(=O)c1nnn(C(C)(C)C)n1` [Compound 58, 2-(tert-butyl)-N-(5-fluoro-2-methyl-4-(4-((1-methyl-1H-pyrazol-4-yl)amino)-1,3,5-triazin-2-yl)benzyl)-2H-tetrazole-5-carboxamide], the IC50 is less than 1 nM in test [1] and 100 to 500 nM in test [2].

Take `Cn1cc(Nc2ncnc(-c3ccc4c(c3)CCCC[C@H]4NC(=O)c3cnc(C(C)(C)C)o3)n2)cn1` [Compound 35, 2-tert-butyl-N-[(5R)-2-[4-[(1-methylpyrazol-4-yl)amino]-1,3,5-triazin-2-yl]-6,7,8,9-tetrahydro-5H-benzo[7]annulen-5-yl]-oxazole-5-carboxamide]: the IC50 in test [1] was less than 1 nM; in test [2] it was 100 to 500 nM.

Turning to `Cc1cc(-c2ncnc(Nc3cnn(C)c3)n2)c(F)cc1CNC(=O)c1nc(C(C)(C)C)no1` [Compound 57, 3-(tert-butyl)-N-(5-fluoro-2-methyl-4-(4-((1-methyl-1H-pyrazol-4-yl)amino)-1,3,5-triazin-2-yl)benzyl)-1,2,4-oxadiazole-5-carboxamide], the results for the IC50 in test [1] and in test [2] were less than 1 nM and 100 to 500 nM, respectively.

On to `Cc1cc(-c2ncnc(Nc3cnn(C)c3)n2)c(F)cc1CNC(=O)c1cnn(C(C)(C)C)c1` [Compound 61, 1-(tert-butyl)-N-(5-fluoro-2-methyl-4-(4-((1-methyl-1H-pyrazol-4-yl)amino)-1,3,5-triazin-2-yl)benzyl)-1H-pyrazole-4-carboxamide], for which the 50% inhibitory concentration (IC50) was less than 1 nM in test [1] and 100 to 500 nM in test [2].

Consider `Cc1c(CNC(=O)c2nc(C(C)(C)C)no2)ccc(-c2ncnc(Nc3cnn(C)c3)n2)c1F` [Compound 14, 3-(tert-butyl)-N-(3-fluoro-2-methyl-4-(4-((1-methyl-1H-pyrazol-4-yl)amino)-1,3,5-triazin-2-yl)benzyl)-1,2,4-oxadiazole-5-carboxamide], for which the figures for the IC50 in test [1] and in test [2] were less than 1 nM and less than 100 nM, respectively.
